Reference: patent publication US20220288010A1, “METHODS FOR REDUCING REWARDING EFFECTS OF MORPHINE WITHOUT AFFECTING ITS ANALGESIC EFFECTS” (The Board of Trustees of the Leland Stanford Junior …, priority 2019, published 2022)
Entries after “also recorded” stand apart in the source; their conditions may differ.

Tests used:
mice [1] = assay: morphine conditioned place preference (CPP) paradigm to assess morphine reward; assay type: in vivo
Text: The ability of a MAGL inhibitor to attenuate the rewarding effect of an opioid can also be assessed in animal models. For example, a morphine conditioning place preference (CPP) paradigm can be used as a preclinical model to measure reward, in which mice are conditioned to associate a particular chamber with the rewarding effects of morphine (see, e.g., Example 1). Reward, e.g., as measured by a preference for the morphine chamber, can be assessed at different phases of morphine conditioning, for example to assess if a MAGL inhibitor decreases or inhibits the establishment of the rewarding effect or of its maintenance or expression.
Endocannabinoid signaling is primarily regulated by MAGL and FAAH, the two enzymes responsible for catabolizing the endogenous cannabinoids, 2-AG and anandamide. Although some studies have shown that inhibition of these enzymes reduces certain aspects of morphine withdrawal, no studies exist that have examined their role in morphine reward. We utilized the morphine conditioned place preference (CPP) paradigm, to assess morphine reward, in which mice are conditioned to associate a particular chamber with the rewarding effects of morphine (FIG. 1A). […] To test the effect of systemic blockade of MAGL with the pharmacological inhibitor JZL-184 on morphine reward, on Day 1 mice underwent a baseline test, on Day 2-5 mice were conditioned to morphine wherein they received an intraperitoneal (i.p.) injection of JLZ-184 (10 mg/kg, i.p.), two hours prior to each morphine conditioning session (FIG. 1B). On day 6, mice were tested for morphine preference. […] Next, to test if this effect of MAGL inhibition was selective for the conditioning phase or potentially could also alter the expression of the morphine preference, mice were injected with JLZ-184 two hours prior to the Day 6 morphine preference test, in the absence of morphine (FIG. 1D).
In order to expand our findings, we decided to test the (R)-3t compound, a reversible MAGL inhibitor, in morphine conditioned place preference. As with JZL-184, (R)-3t (20 mg/kg) was given before each morphine conditioning session (FIG. 3A).
To test the effect of inhibiting the enzyme FAAH on the rewarding effects of morphine, we tested the effect of the FAAH inhibitor PF-3845 in morphine conditioned place preference. […] We additionally found no effect of PF-3845 (10 mg/kg, i.p.) on morphine-induced analgesia and morphine tolerance using the tail-flick test (FIGS. 4E-G).
Inhibition of the MAGL enzyme with JZL-184 results in lower metabolization of the endogenous cannabinoid 2-AG. This implies higher availability of this endogenous cannabinoid receptor 1 (CB1) ligand to activate CB1 receptors. Next, we tested the effect of activating the CB1 receptor with the exogenous CB1 ligand, THC, on morphine conditioned place preference. Mice were systemically administered THC prior to each morphine conditioning session (FIG. 5A).

[2] = tested on: monoacylglycerol lipase (MAGL); conditions: cited from earlier work
[3] = tested on: nucleus accumbens (NAc) activity; assay: in vivo fiber photometry (GCaMP6s) recording during morphine CPP; conditions: JZL-184 treated mice
Text: FIGS. 7A-7D. MAGL inhibition reduces nucleus accumbens (NAc) activity during morphine CPP. FIG. 7A: Experimental timeline for fiber photometry recording during […]. FIG. 7B: Brain schematic with an optic fiber implanted into the NAc expressing the calcium indicator GCaMP6s and a representative image of the GCaMP6s expressing in the NAc (aca=anterior commissure, AcbC=nucleus accumbens core, AcbSh=nucleus accumbens shell). FIG. 7C: Graph of the quantification of the mean signal (representative of NAc activity) around zone entry into the morphine- or saline-paired chambers of vehicle- or JZL-184-pretreated animals. (dF/F (%) data for the average signal +/− 5s around zone entries; vehicle-treated animals, morphine vs saline chamber *p<0.05, n=6; JZL-184 treated animals, morphine vs saline p=0.054, n=9). FIG. 7D: Graph of the quantification of the onset of approach to morphine- or saline-paired chambers (dF/F (%) data for the average signal +/− 5s of the onset of approaching a chamber; vehicle-treated animals, morphine vs saline chamber *p<0.05, n=6; JZL-184 treated animals, morphine vs saline p=0.39, n=9).
The rewarding effects of morphine have been linked to neural activity of the brain region the nucleus accumbens. […]

mice [4] = assay: tail flick test, tolerance to morphine's analgesic effects; assay type: in vivo
Description: Chronic morphine treatment can result in tolerance to its analgesic effects; therefore, to test if morphine tolerance was affected by MAGL inhibition, for four consecutive days mice received a morning and afternoon injection of JZL-184 (10 mg/kg, i.p.), two hours prior to an injection of morphine (10 mg/kg), and antinociception was assessed every other day in the tail flick test.

mice [5] = assay: cocaine conditioned place preference (CPP); assay type: in vivo; conditions: JZL-184 prior to each cocaine conditioning session
Text: Although drugs of abuse exert their rewarding effects through similar pathways and brain structures, they use different mechanisms. […] Mice were pretreated with JZL-184 prior to each cocaine conditioning session (FIG. 6A).

mice [6] = assay: tail flick test, morphine analgesia, cumulative dose response of morphine; assay type: in vivo
[7] = pretreatment with PF-3845 10 mg/kg i.p.

With `Cc1ncccc1-c1cc(F)cc(N2C[C@H](N3CCN(c4ncccn4)CC3)CC2=O)c1` [(R)-3t, (4R)-1-[3-fluoro-5-(2-methylpyridin-3-yl)phenyl]-4-[4-(pyrimidin-2-yl)piperazin-1-yl]pyrrolidin-2-one] the “acquisition of morphine CPP (morphine reward)” value (“acquisition … (morphine reward)” for short) (mice [1]; (R)-3t 20 mg/kg before each morphine conditioning session) was “resulted in a lack of morphine reward; also recorded: abolishes the rewarding effects of morphine; also recorded: abolishes acquisition of CPP”.
In the case of `O=C(Oc1ccc([N+](=O)[O-])cc1)N1CCC(C(O)(c2ccc3c(c2)OCO3)c2ccc3c(c2)OCO3)CC1` [JZL-184, (4-nitrophenyl) 4-[bis(1,3-benzodioxol-5-yl)-hydroxymethyl]piperidine-1-carboxylate], the “acquisition … (morphine reward)” value (mice [1]; JZL-184 10 mg/kg i.p. two hours prior to each morphine conditioning session (Day 2-5), preference test Day 6, 10 mg/kg) is reported as “abolishes morphine reward; also recorded: abolishes the rewarding effects of morphine; also recorded: abolished morphine CPP”, the “expression of morphine CPP” value (mice [1]; JZL-184 two hours prior to the Day 6 morphine preference test, in the absence of morphine) is reported as “does not alter the expression of morphine CPP” and the “expression of morphine CPP” value (mice [1]; JZL-184 two hours prior to the Day 6 morphine preference test, in the absence of morphine, listed as JLZ-184) is reported as “had no effect on morphine reward”. The “selectivity for MAGL over other brain serine hydrolases, including FAAH” value [2] was “highly selective for MAGL over other brain serine hydrolases”, the “higher nucleus accumbens activity when approaching the morphine-paired chamber” value ([3]; onset of approach (FIG. 7D)) was “abolished” and the “increase in nucleus accumbens activity prior to entry into the morphine-paired chamber vs saline-paired chamber” value ([3]; signal around zone entry (FIG. 7C)) was “absent”. The “development of tolerance to morphine's analgesic effects” value (mice [4]; JZL-184 10 mg/kg i.p. morning and afternoon, two hours prior to morphine 10 mg/kg, four consecutive days, compared to vehicle) was “delayed morphine-induced tolerance; also recorded: delays the development of tolerance to morphine's analgesic effects”, the “acquisition of cocaine CPP (cocaine reward)” value (mice [5]) was “did not have any effect on cocaine reward; also recorded: does not alter the acquisition of cocaine CPP” and the morphine-induced analgesia (mice [6]; JZL-184 10 mg/kg i.p. two hours before morphine 0.1-10 mg/kg cumulative, tested 30 minutes after each dose) was “did not alter the analgesic effects of morphine; also recorded: does not affect morphine-induced analgesia”.
In the case of `CCCCCc1cc(O)c2c(c1)OC(C)(C)[C@@H]1CCC(C)=C[C@@H]21` [THC, Δ^9-Tetrahydrocannabinol], the “acquisition … (morphine reward)” value (mice [1]; THC systemically prior to each morphine conditioning session) is reported as “had no effect on morphine reward; also recorded: does not alter the acquisition of morphine CPP”.
For `O=C(Nc1cccnc1)N1CCC(Cc2cccc(Oc3ccc(C(F)(F)F)cn3)c2)CC1` [PF-3845], the “acquisition of morphine CPP” value (mice [1]; PF-3845 10 mg/kg i.p. before each conditioning session, 10 mg/kg) was “had no effect on acquisition of morphine conditioned place preference; also recorded: does not alter acquisition of morphine CPP”, the “expression of morphine CPP” value (mice [1]; PF-3845 10 mg/kg i.p. before the morphine CPP expression test, 10 mg/kg) was “had no effect; also recorded: does not alter” and the morphine tolerance (mice [4]; [7]) was “no effect; also recorded: are not affected”. The morphine-induced analgesia (mice [6]; [7]) was “no effect; also recorded: are not affected”.
